Assay results from patent publication US20240415819A1, “MACROCYCLIC COMPOUNDS AS PROTEASOME SUBUNIT BETA TYPE-5 INHIBITORS” (Lead Discovery Center GmbH, priority 2021, published 2024).
pIC50: −log10 of the molar value.

Tests used:
[1] = molecular target: T1, β5 subunit of the human constitutive proteasome (CPS) (Homo sapiens, UniProt P28074); experiment: β5 inhibition assay, human constitutive proteasome (Suc-LLVY-AMC); type: biochemical; settings: IC50 class, Suc-LLVY-AMC substrate
T1 construct: purchased Boston Biochem E-360
Procedure: The enzymatic activity of the β5 subunit of the human constitutive proteasome (CPS) is analyzed. In another assay, which differs from the assay of the human constitutive proteasome only in using the human immunoproteasome (IPS) the enzymatic activity of the β5 subunit of the human immunoproteasome (IPS) is analyzed. […] Inhibition is indicated as IC50 [nM] (“-”=not measured).

[2] = molecular target: T2, β5 subunit of the human immunoproteasome (IPS) (Homo sapiens, UniProt P28062); experiment: β5 inhibition assay, human immunoproteasome (Suc-LLVY-AMC); type: biochemical; settings: IC50 class, Suc-LLVY-AMC substrate
T2 construct: purchased Boston Biochem E-370
Procedure, shortened: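 Human immunoproteasome (1 nM final) was preincubated 10 min at RT with compound in 100 mM HEPES pH 7.5, 50 mM NaCl, 0.02% SDS, 1 mM DTT. Suc-LLVY-AMC (22.6 μM final) was then added for 4 h at RT in the dark. After stopping with 1 μM bortezomib, AMC fluorescence was read (ex 355/em 460 nm).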

[3] = tested on: A549 (human lung carcinoma cell line); experiment: Glo assay of A549 cells (Table 3; ProteasomeGlo plating scheme); type: cell-based; settings: Homo sapiens; A549 cells; read-out: PGLo A549
Procedure, shortened: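 Luminescent read-out of cellular chymotrypsin-like proteasome activity: cells exposed to compound 105 min at 37° C., 5% CO2, then given Suc-LLVY-Glo reagent, shaken 2-5 min and kept dark 10-15 min before reading. Values are IC50 [nM].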

[4] = tested on: Hs 746T (human gastric carcinoma cell line); experiment: 48 hr CTG viability assay, Hs 746T; type: cell-based; settings: Hs746T, 48 hr CTG, read-out: Hs 746T IC50
Procedure, shortened: (§1)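 Growth inhibition by compound over 48 h; IC50 (nM) derived from duplicate CellTiter-Glo luminescence readings across 0.0015–10 uM.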

[5] = tested on: MM1 S (B lymphoblast cell line); experiment: 48 hr CTG viability assay, MM1S; type: cell-based; settings: Homo sapiens, 48 hr CTG, read-out: MM1S IC50
Procedure, shortened: as §1

[6] = tested on: RPMI 8226 (B lymphocyte cell line, multiple myeloma); experiment: 48 hr CTG viability assay, RPMI 8226; type: cell-based; settings: Homo sapiens, RPMI-8226; 48 hr CTG; read-out: RPMI-8226 IC50
Procedure, shortened: as §1

Structure (SMILES)	pIC50 [1]	pIC50 [2]	pIC50 [3]	pIC50 [4]	pIC50 [5]	pIC50 [6]
Cc1ccc2cc1CNC(=O)[C@H](CCc1ccccc1)NC(=O)[C@@H](NC(=O)C1CC3CCC(C1)N3C(=O)OC(C)(C)C)CC(=O)N1CCCC(CCO2)C1 (stereo partly drawn) [Compound 605, tert-butyl 3-(((9S,12S)-5^4-methyl-8,11,14-trioxo-9-phenethyl-4-oxa-7,10-diaza-1(3,1)-piperidina-5(1,3)-benzenacyclotetradecaphane-12-yl)carbamoyl)-8-azabicyclo[3.2.1]octane-8-carboxylate]	> 7.00	> 7.00	> 7.00	6.30 to 7.00	> 7.00	> 7.00
Cc1ccc2cc1CNC(=O)[C@H](CCc1ccccc1)NC(=O)[C@@H](NC(=O)C1CC3CCC(C1)N3)CC(=O)N1CCCC(CCO2)C1 (stereo partly drawn) [Compound 723, N-((9S,12S)-5^4-methyl-8,11,14-trioxo-9-phenethyl-4-oxa-7,10-diaza-1(3,1)-piperidina-5(1,3)-benzenacyclotetradecaphane-12-yl)-8-azabicyclo[3.2]octane-3-carboxamide]	> 7.00	> 7.00	> 7.00	6.30 to 7.00	6.30 to 7.00	6.30 to 7.00
Cc1ccc2cc1CNC(=O)[C@H](CCc1ccccc1)NC(=O)[C@@H](NC(=O)C13CC(F)(C1)C3)CC(=O)N1CCCC(CCO2)C1 (stereo partly drawn) [Compound 633, 3-fluoro-N-((9S,12S)-5^4-methyl-8,11,14-trioxo-9-phenethyl-4-oxa-7,10-diaza-1(3,1)-piperidina-5(1,3)-benzenacyclotetradecaphane-12-yl)bicyclo[1.1.1]pentane-1-carboxamide]	> 7.00	> 7.00	> 7.00	> 7.00	> 7.00	> 7.00
Cc1ccc2cc1CNC(=O)[C@H](CCc1ccccc1)NC(=O)[C@@H](NC(=O)CCNCc1cccc(N3CCOCC3)c1)CC(=O)N1CCCC(CCO2)C1 (stereo partly drawn) [Compound 665, N-((9S,12S)-5^4-methyl-8,11,14-trioxo-9-phenethyl-4-oxa-7,10-diaza-1(3,1)-piperidina-5(1,3)-benzenacyclotetradecaphane-12-yl)-3-((3-morpholinobenzyl)amino)propanamide]	> 7.00	> 7.00	> 7.00	> 7.00	> 7.00	> 7.00
Cc1ccc2cc1CNC(=O)[C@H](CCc1ccccc1)NC(=O)[C@@H](NC(=O)CCNC(=O)c1cccc(OCC(C)C)c1)CC(=O)N1CCCC(CCO2)C1 (stereo partly drawn) [Compound 651, 3-isobutoxy-N-(3-(((9S,12S)-5^4-methyl-8,11,14-trioxo-9-phenethyl-4-oxa-7,10-diaza-1(3,1)-piperidina-5(1,3)-benzenacyclotetradecaphane-12-yl)amino)-3-oxopropyl)benzamide]	> 7.00	> 7.00	> 7.00	> 7.00	> 7.00	> 7.00
Cc1ccc2cc1CNC(=O)[C@H](CCc1ccccc1)NC(=O)[C@@H](NC(=O)CCOCCCC1CC1)CC(=O)N1CCCC(CCO2)C1 (stereo partly drawn) [Compound 626, 3-(3-cyclopropylpropoxy)-N-((9S,12S)-5^4-methyl-8,11,14-trioxo-9-phenethyl-4-oxa-7,10-diaza-1(3,1)-piperidina-5(1,3)-benzenacyclotetradecaphane-12-yl)propanamide]	> 7.00	> 7.00	> 7.00	> 7.00	> 7.00	> 7.00

Results, then the compound that gave them:

pIC50 [1]	pIC50 [2]	pIC50 [3]	pIC50 [4]	pIC50 [5]	pIC50 [6]	Structure (SMILES)
> 7.00	> 7.00	> 7.00	> 7.00	> 7.00	> 7.00	COc1ccc(OCCC(=O)N[C@H]2CC(=O)N3CCCC(CCOc4ccc(C)c(c4)CNC(=O)[C@H](CCc4ccccc4)NC2=O)C3)cc1 (stereo partly drawn) [Compound 622, 3-(4-methoxyphenoxy)-N-((9S,12S)-5^4-methyl-8,11,14-trioxo-9-phenethyl-4-oxa-7,10-diaza-1(3,1)-piperidina-5(1,3)-benzenacyclotetradecaphane-12-yl)propanamide]
> 7.00	> 7.00	> 7.00	6.30 to 7.00	> 7.00	> 7.00	Cc1ccc2cc1CNC(=O)[C@H](CCc1ccccc1)NC(=O)[C@@H](NCC(F)(F)F)CC(=O)N1CCCC(CCO2)C1 (stereo partly drawn) [Compound 709, (9S,12S)-5^4-methyl-9-phenethyl-12-((2,2,2-trifluoroethyl)amino)-4-oxa-7,10-diaza-1(3,1)-piperidina-5(1,3)-benzenacyclotetradecaphane-8,11,14-trione]
> 7.00	> 7.00	> 7.00	6.30 to 7.00	> 7.00	> 7.00	Cc1ccc2cc1CNC(=O)[C@H](CCc1ccccc1)NC(=O)[C@@H](NC(=O)C1(C)CNC1)CC(=O)N1CCCC(CCO2)C1 (stereo partly drawn) [Compound 715, 3-methyl-N-((9S,12S)-5^4-methyl-8,11,14-trioxo-9-phenethyl-4-oxa-7,10-diaza-1(3,1)-piperidina-5(1,3)-benzenacyclotetradecaphane-12-yl)azetidine-3-carboxamide]
> 7.00	> 7.00	> 7.00	6.30 to 7.00	6.30 to 7.00	6.30 to 7.00	Cc1ccc2cc1CNC(=O)[C@H](CCc1ccccc1)NC(=O)[C@@H](NC(=O)CCOC1CC3(CNC3)C1)CC(=O)N1CCCC(CCO2)C1 (stereo partly drawn) [Compound 725, 3-((2-azaspiro[3.3]heptan-6-yl)oxy)-N-((9S,12S)-5^4-methyl-8,11,14-trioxo-9-phenethyl-4-oxa-7,10-diaza-1(3,1)-piperidina-5(1,3)-benzenacyclotetradecaphane-12-yl)propanamide]
> 7.00	> 7.00	> 7.00	> 7.00	> 7.00	> 7.00	Cc1ccc2cc1CNC(=O)[C@H](CCc1ccccc1)NC(=O)[C@@H](NC(=O)N1CCc3cc(O)ccc31)CC(=O)N1CCCC(CCO2)C1 (stereo partly drawn) [Compound 705, 5-hydroxy-N-((9S,12S)-5^4-methyl-8,11,14-trioxo-9-phenethyl-4-oxa-7,10-diaza-1(3,1)-piperidina-5(1,3)-benzenacyclotetradecaphane-12-yl)indoline-1-carboxamide]
> 7.00	> 7.00	> 7.00	6.30 to 7.00	> 7.00	> 7.00	Cc1ccc2cc1CNC(=O)[C@H](CCc1ccccc1)NC(=O)[C@@H](NC1CC3CCC1C3)CC(=O)N1CCCC(CCO2)C1 (stereo partly drawn) [Compound 712, (9S,12S)-12-(bicyclo[2.2.1]heptan-2-ylamino)-5^4-methyl-9-phenethyl-4-oxa-7,10-diaza-1(3,1)-piperidina-5(1,3)-benzenacyclotetradecaphane-8,11,14-trione]
> 7.00	> 7.00	> 7.00	> 7.00	> 7.00	> 7.00	Cc1ccc2cc1CNC(=O)[C@H](CCc1ccccc1)NC(=O)[C@@H](NC(=O)CCN1CC3(CCOCC3)C1)CC(=O)N1CCCC(CCO2)C1 (stereo partly drawn) [Compound 658, N-((9S,12S)-5^4-methyl-8,11,14-trioxo-9-phenethyl-4-oxa-7,10-diaza-1(3,1)-piperidina-5(1,3)-benzenacyclotetradecaphane-12-yl)-3-(7-oxa-2-azaspiro[3.5]nonan-2-yl)propanamide]
